Patent US20230285570A1, “THERAPEUTICALLY USEFUL CURE-PRO MOLECULES FOR E3 LIGASE MEDIATED DEGRADATION OF PROTEINS, AND METHODS OF MAKING AND USING THEM” (CORNELL UNIVERSITY, priority 2020, published 2023)
Entries after “also recorded” stand apart in the source; their conditions may differ.

Legend:
Type in all cases: cell-based
BRD4 [1] = target: T1, BRD4 (Homo sapiens, UniProt O60885); assay: CURE-PRO-mediated BRD4 degradation in HCT116 cells, WES (ProteinSimple); parameters: endogenous in cells
BRD4 [2] = target: T1, BRD4; assay: Summary of BRD4 degradation by CURE-PRO pairs, estimated from Western Blot or WES; parameters: endogenous in cells
Outline: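 Degradation read-out from immunoblot with ECL, or WES capillary electrophoresis with HRP detection, of RIPA lysates. Cells (Namalwa, Ramos, HeLa, MCF7, HT29 or HCT116) were exposed to DMSO-solubilized compounds for 24 h; a check mark marks 30% to 70% or higher degradation.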

BRD4 [3] = target: T1, BRD4; assay: CURE-PRO-mediated BRD4 degradation in HeLa cells, Western blot; parameters: endogenous in cells; host or cells: HeLa; conditions: 24 h
Outline: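 HeLa cells (2.5×10^6) treated 24 h with DMSO-solubilized compounds, degrader pairs combined 1:1, at 1 nM-1 μM, 1-10 μM, 10 μM or 10 and 100 μM each depending on series. RIPA lysates (10-20 μg protein) run on SDS-PAGE and immunoblotted for BRD4 with ECL detection.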

Structure (SMILES) | BRD4 degradation (BRD4 [1]; 1:1 with MDM2 ligand 8313, HCT116, 24 h, 1 μM-10 μM each) | BRD4 degradation (BRD4 [1]; 1:1 with MDM2 ligand 8314, HCT116, 24 h, 1 μM-10 μM each) | Degradation of BRD4, combination with CRBN ligand 8046 (BRD4 [2]; Table 1, aryl-boronic acid BRD4 ligand + 8046) | Degradation of BRD4, combination with CRBN ligand 8066 (BRD4 [2]; Table 1, aryl-boronic acid BRD4 ligand + 8066) | Degradation of BRD4, combination with MDM2 ligand 8313 (BRD4 [2]; Table 2, aryl-boronic acid BRD4 ligand + 8313) | Degradation of BRD4, combination with MDM2 ligand 8314 (BRD4 [2]; Table 2, aryl-boronic acid BRD4 ligand + 8314) | Degradation of BRD4, combination with VHL ligand 8305 (BRD4 [2]; Table 3, aryl-boronic acid BRD4 ligand + 8305) | BRD4 degradation (BRD4 [3]; co-treated 1:1 with CRBN ligand 8046, HeLa, 10 μM each) | BRD4 degradation (BRD4 [3]; co-treated 1:1 with CRBN ligand 8066, HeLa, 10 μM each) | BRD4 degradation (BRD4 [1]; 1:1 with MDM2 ligand 8310, HCT116, 24 h, 10 μM) | BRD4 degradation (BRD4 [1]; 1:1 with MDM2 ligand 8312, HCT116, 24 h, 10 μM) | Degradation of BRD4, combination with CRBN ligand 8048 (BRD4 [2]; Table 4, aromatic 1,2-diol BRD4 ligand + 8048) | Degradation of BRD4, combination with MDM2 ligand 8310 (BRD4 [2]; Table 5, aromatic 1,2-diol BRD4 ligand + 8310) | Degradation of BRD4, combination with MDM2 ligand 8312 (BRD4 [2]; Table 5, aromatic 1,2-diol BRD4 ligand + 8312) | BRD4 degradation (BRD4 [3]; BRD4 monomer alone, HeLa, 1-10 μM) | BRD4 degradation (BRD4 [3]; co-treated 1:1 with CRBN ligand 8048, HeLa, 1-10 μM each) | BRD4 degradation (BRD4 [3]; co-treated 1:1 with CRBN ligand 8049, HeLa, 1-10 μM each)
CCNC(=O)C[C@@H]1N=C(c2ccc(Cl)cc2)c2cc(OCCCCC(=O)Nc3cccc(B(O)O)c3)ccc2-n2c(C)nnc21 [BRD-E20, (3-(5-(((4S)-6-(4-chlorophenyl)-4-(2-(ethylamino)-2-oxoethyl)-1-methyl-4H-benzo[f][1,2,4]triazolo[4,3-a][1,4]diazepin-8-yl)oxy)pentanamido)phenyl)boronic acid] | had no effect on BRD4 protein levels | caused partial loss of the BRD4 protein; also recorded: Degradation is observed | √ (A black check mark indicates efficacy of 30% to 70% or higher protein degradation) | √ (A black check mark indicates efficacy of 30% to 70% or higher protein degradation) | √ (A black check mark indicates efficacy of 30% to 70% or higher protein degradation) | √ (A black check mark indicates efficacy of 30% to 70% or higher protein degradation) | √ (A black check mark indicates efficacy of 30% to 70% or higher protein degradation) | causes degradation of BRD4; also recorded: Degradation is noted | causes degradation of BRD4; also recorded: Degradation is noted |  |  |  |  |  |  |  | 
CCNC(=O)C[C@@H]1N=C(c2ccc(Cl)cc2)c2cc(OCCOCCNC(=O)c3cccc(O)c3O)ccc2-n2c(C)nnc21 [BRD-N39, N-(2-(2-(((4S)-6-(4-chlorophenyl)-4-(2-(ethylamino)-2-oxoethyl)-1-methyl-4H-benzo[f][1,2,4]triazolo[4,3-a][1,4]diazepin-8-yl)oxy)ethoxy)ethyl)-2,3-dihydroxybenzamide] |  |  |  |  |  |  |  |  |  | caused BRD4 degradation | caused BRD4 degradation | √ (A black check mark indicates efficacy of 30% to 70% or higher protein degradation) | √ (A black check mark indicates efficacy of 30% to 70% or higher protein degradation) | √ (A black check mark indicates efficacy of 30% to 70% or higher protein degradation) | there is no degradation of BRD4 | causes degradation of BRD4; also recorded: Degradation is noted | no evidence of BRD4 degradation
